Measured values: US20230226103A1, “COMPOSITION FOR TREATING AND/OR PREVENTING COGNITIVE IMPAIRMENT OR DEMENTIA” (MiZ Company Limited, priority 2018, published 2023)
Where “and” joins values, the source holds several entries; their conditions need not be identical. Equal entries are not always repeated. Where two headings read alike, the source gives them in different places.

Assays:
[1] = system: cognitive functions of women aged 65 years or more
Experimental: (§1) Elderly women living in a community (n=13, 68.0±3.0 years old, body weight: 66.9±10.3 kg, height: 161.1±5.8 cm) volunteered for participants for the present open-label preliminary experiment (registered in ClinicalTrials.gov, NCT02830854). Individuals with a serious disease or a mental disease had been excluded as they met the exclusion criteria. This study was conducted according to the guideline of the Declaration of Helsinki, and the local ethics committee approved the protocol of the present clinical study. The participants all gave informed consent, and were each asked to keep their usual lifestyle and take meals as usual during the study. […] Mini Mental State Examination (MMSE) scores before the initiation of the study and 4 weeks thereafter were used to evaluate the therapeutic effect. In addition, assessment of other cognitive ability markers and evaluation of side effects were conducted based on the results before the initiation of the study and 4 weeks thereafter. The cognitive functions of the participants were evaluated by using the MMSE and the Alzheimer's Disease Assessment Scale-Cognitive subscale (ADAS-Cog). The MMSE is a 30-point questionnaire widely used in clinical practice to determine the degree of cognitive impairment of an elderly individual. The ADAS-Cog is a method, consisting of 11 tasks, of assessing cognitive abilities, and determines memory impairment, language impairment, praxis impairment, attention deficits, and other cognitive abilities to test for dementia. In addition to the assessments, the participants were asked to report adverse events during the study through self-assessment or an open-ended questionnaire on side effects (e.g., queasy feeling, headache). Statistical significance was determined by using a Wilcoxon signed-rank test (before the initiation of the study vs. 4 weeks thereafter). If p≤0.05 was satisfied, the result was considered statistically significant.

[2] = 4% hydrogen gas 15 minutes per day over 4 weeks
Experimental: as §1

[3] = system: patients with mild to moderate dementia of the Alzheimer's type; conditions: 10 mg donepezil, 24-week (6-month) administration; rating score 0 to 70 points; cited from earlier work

Structure (SMILES) | ADAS-Cog Language reproduction test After 4 weeks ([1]; 4% H2 inhaled 15 minutes per day over 4 weeks, baseline 3.6 ± 1.0) | ADAS-Cog Language recognition After 4 weeks ([1]; 4% H2 inhaled 15 minutes per day over 4 weeks, baseline 4.2 ± 3.2) | ADAS-Cog Language recognition % change ([1]; after 4 weeks vs baseline) [%] | ADAS-Cog Language reproduction test % change ([1]; after 4 weeks vs baseline) [%] | MMSE Total score % change ([1]; after 4 weeks vs baseline, 4% H2 inhaled 15 minutes per day) | Number of women whose MMSE scores increased ([1]; among 13 women, after administration) | Improvement in ADAS-Cog converted from MMSE (Improvement in MMSE×2.33) ([1]; conversion formula BMC Neurol. 2002, 2:6) [points] | Other 9 items in ADAS-Cog scoring, score ([1]; correctly executed in both tests (baseline and after 4 weeks)) | Cognitive functions (result in words) ([1]; elderly women with mild cognitive impairment, 4% hydrogen gas 15 minutes per day over 4 weeks) | Improvement in the MMSE ([1]; inhalation of hydrogen gas for a month) [points] | Adverse events / side effects associated with inhalation [2] | Adverse events / side effects associated with inhalation ([2]; listed as hydrogen gas) | Reduction of ADAS-Cog score from the score at initiation of administration [3]
[HH] [H2, hydrogen gas] | 8.1 ± 1.2 | 1.1 ± 1.0 | −40.1 | 140.0 | 13.7% and 14.2% | 12 | 8.16 | 0 | improved to normal levels | 3.50 | no sign of side effects | no adverse event | –
COc1cc2c(cc1OC)C(=O)C(CC1CCN(Cc3ccccc3)CC1)C2 (stereo not shown) [donepezil] | – | – | – | – | – | – | – | – | – | – | – | – | approximately 1.4 points
